Data published in patent publication US20260115280A1, “VACCINES” (ADJUVANCE TECHNOLOGIES, INC., priority 2021, published 2026).

Tests used:
spleen lymphocytes = assay: FluoroSpot (T-cell) assay, spot forming cells per million spleen lymphocytes (Example 4); format: in vivo; conditions: mice
Procedure: (§1) The impact of TQL-1055 choline salt (in situ salt) at various dosages, a TLR9 or TLR4 agonist, and VZV gE (expressed by CHO cells), as compared to AS-01B (5 mcg MPL+5 mcg QS-21) was tested. In Experiment #1, mice were immunized with PBS alone, gE (5 mcg)+TLR9 ligand (50 mcg)+TQL-1055 (four groups: 5 mcg, 15 mcg, 25 mcg, 50 mcg), and AS-01B. In Experiment #2, mice were immunized with PBS alone, gE (5 mcg)+TLR4 ligand (5 mcg)+TQL-1055 (four groups: 5 mcg, 15 mcg, 25 mcg, 50 mcg), and AS-01B.
(§2) Mice were immunized at Day 0 and Day 21. Groups were bled at Day 31 […] for serum analysis.
FIG. 24 is a graph depicting the results of a FluroSpot (T-cell) assay showing spot forming cells per million spleen lymphocytes for Experiment 1. FIG. 25 is a graph depicting the results of a FluroSpot (T-cell) assay showing spot forming cells per million spleen lymphocytes for Experiment 2.

VZV gE = assay: ELISA antibody titers (Example 4); format: in vivo, Varicella zoster virus; conditions: mice
Procedure: as §1, §2
FIG. 26 is a graph depicting the results of an enzyme-linked immunosorbent assay (ELISA) showing antibody titers for […]. FIG. 27 is a graph depicting the results of an enzyme-linked immunosorbent assay (ELISA) showing antibody titers for Experiment 1.

CD4+ T cells [1] = assay: T-cell intracellular cytokine staining (ICS) assay, CD4+ T-cell (Example 4); format: in vivo; conditions: mice
Procedure: as §1, §2
FIG. 22 is a graph depicting the results of a T-cell intracellular cytokine staining (ICS) assay (CD4+ T-cell) showing the percentage of CD4+ T cells expressing one or more cytokines in response to stimulation with VZV gE for Experiment 1. FIG. 23 is a graph depicting the results of T-cell intracellular cytokine staining (ICS) assays (CD4+ T-cell) showing the percentage of CD4+ T cells expressing one or more cytokines in response to stimulation with VZV gE for Experiment 2.

[2] = Weight loss: mean percent initial weight change after immunization (Example 6); format: in vivo, C57BL/6J mice; conditions: mice; TQL 1055 alone with gE
Procedure: (§3) The tolerability and immunogenicity of formulations containing (TQL-1055 free acid HP-β-CD (2-hydroxypropyl beta-cyclodextrin) and TLR4 agonist candidates were studied. CD-1 mice were immunized as shown in the table below. PHAD liposomes were obtained from Avanti. EcML was obtained from EuBiologics. CRX-527 was obtained from InvivoGen. TLR4a-1 is an undisclosed TLR4 compound. AS01 is a combination of 5 mcg QS-21 and 5 mcg MPL used in SHINGRIX.
The study was conducted in two parts with staggered start dates. Part A involved testing TQL1055 in combination with PHAD and EcML. Part B involved testing TQL1055 in combination with CRX-527 and TR4a-1.
Mice were immunized via I.M. on Day 0 and Day 14. Groups were bled at Day-1, Day 13 (post Dose 1), and Day 28 (post Dose 2) for serum analysis for anti-gE specific antibody response. Weight measurements were also obtained on Days 0, 1, 2, 14, 15, 16, and 17.
Post dose 1 mean percent (%) initial weight change for each group is depicted in FIGS. 40-45. Post dose 1 weight loss heatmaps are depicted in FIG. 46. Post dose 2 mean percent (%) initial weight change for each group is depicted in FIGS. 47-51. […] Weight loss appeared to be driven mostly by TLR4 dose.

gE [3] = assay: Anti-gE ELISA, D28 IgG2a subclass endpoint titers (Example 5); format: in vivo, Varicella zoster virus; conditions: CD-1 mice; with 5 mcg gE + 40 mcg TQL-1055; EcML statement at the low TLR4a dose
Text: as §3
(§4) Mice were immunized via I.M. on Day 0 and Day 14. Groups were bled at Day-1, Day 13 (post Dose 1), and Day 28 (post Dose 2) for serum analysis for anti-gE specific antibody response and anti-gE specific T cell response. Weight measurements were also obtained on Days 0, 1, 2, 14, 15, 16, and 17.
Similar responses were observed from all 4 TLR4 agonists with CRX-527 having the lowest IgG2a titers. There was a more pronounced dose effect of TLR4a on IgG2a than total IgG. PHAD had the largest difference between low and high dose at 8 times higher. At the low TLR4a dose, EcML had the highest IgG2a.

gE [4] = assay: Anti-gE ELISA, D28 total IgG endpoint titers (Example 5); format: in vivo, Varicella zoster virus; conditions: CD-1 mice; high vs low TLR4 agonist dose with 5 mcg gE + 40 mcg TQL-1055 FA HPβCD
Text: as §3, §4

CD8 T cells = assay: D26 CD8 T-cell ICS (Example 5); format: in vivo; conditions: CD-1 mice; high dose PHAD, both doses CRX-527, high dose TLR4a-1 (each with gE + 40 mcg TQL-1055); AS01
Text: as §3
(§5) Mice were immunized via I.M. on Day 0 and Day 14. […] Weight measurements were also obtained on Days 0, 1, 2, 14, 15, 16, and 17.

CD4+ T cells [5] = assay: D26 CD4 T-cell ICS (Example 5); format: in vivo; conditions: CD-1 mice, high dose PHAD, high dose CRX-527, low dose TLR4a-1 (each with gE + 40 mcg TQL-1055)
Text: as §3, §5
The increases were driven largely by higher single cytokine positive T cells for IFN-γ or IL-2.

CD4+ T cells [6] = assay: D42 CD4 T-cell ICS (Example 5); format: in vivo; conditions: CD-1 mice; AS01; both PHAD doses, high dose TLR4a-1, high dose CRX-527 (each with gE + 40 mcg TQL-1055)
Text: as §3, §4
Overall, levels of activation much lower than D26 T cell data.

[7] = TQL-1055 5 mcg combined with TLR4 ligand vs AS-01B
[8] = gE 5 mcg + TLR9 ligand 50 mcg or TLR4 ligand 5 mcg + TQL-1055 5, 15, 25, 50 mcg

| Compound | T-cell response by FluoroSpot compared to AS-01B (spleen lymphocytes; [7]) | T-cell response by FluoroSpot: dose dependence (spleen lymphocytes; [8]) | antibody response by ELISA compared to AS-01B (VZV gE; [7]) | antibody response by ELISA: dose dependence (VZV gE; [8]) | T-cell response by ICS compared to AS-01B (CD4+ T cells [1]; TQL-1055 5 mcg combined with TLR4 ligand vs AS-01B (5 mcg MPL + 5 mcg QS-21)) | T-cell response by ICS (CD4+ T cells expressing one or more cytokines on stimulation with VZV gE): dose dependence (CD4+ T cells [1]; [8]) | weight loss compared to unadjuvanted [2] | rank of IgG2a titers among the 4 TLR4 agonists (gE [3]) | effect of increasing the TLR4 agonist dose on D28 total IgG endpoint titers (gE [4]) | D26 activated CD8 T cells compared to unadjuvanted control group (CD8 T cells) | D26 total cytokine+ CD4+ T cells compared to unadjuvanted (CD4+ T cells [5]; AS01) | D26 total polyfunctional CD4+ T cells compared to unadjuvanted control (CD4+ T cells [5]) | D42 total cytokine+ CD4+ T cells compared to unadjuvanted (CD4+ T cells [6]) |
| --- | --- | --- | --- | --- | --- | --- | --- | --- | --- | --- | --- | --- | --- |
| CC1O[C@@H](OC2C(O)[C@@H](NC(=O)CCCCCCCCCCC(=O)O)C(CO)O[C@H]2OC(=O)[C@]23CCC(C)(C)CC2C2=CCC4C5(C)CC[C@H](O)C(C)(C=O)C5CCC4(C)C2(C)CC3O)C(O)C(O)[C@H]1O[C@@H]1OC[C@@H](O)C(O)C1O (stereo partly shown) [TQL-1055] | without any significant difference | dose-dependent | without any significant difference | dose-dependent | without any significant difference | dose-dependent | no significant weight loss |  |  |  |  |  |  |
| CCCCCCCCCCC[C@H](CC(=O)N[C@H]1[C@H](OC[C@H](NC(=O)C[C@@H](CCCCCCCCCCC)OC(=O)CCCCCCCCC)C(=O)O)O[C@H](CO)[C@@H](OP(=O)(O)O)[C@@H]1OC(=O)C[C@@H](CCCCCCCCCCC)OC(=O)CCCCCCCCC)OC(=O)CCCCCCCCC [CRX-527] |  |  |  |  |  |  |  | lowest | no effect | significantly higher | significantly increased | significantly higher | significantly increased |
